From ChEMBL document CHEMBL1201862, “PubChem BioAssay data set” (2004)
Activity calls are given as the source filed them.

Key:
[1] = target: Disintegrin and metalloproteinase domain-containing protein 17 (Homo sapiens, UniProt P78536); assay: inhibition of ADAM17 substrate cleavage – biochemical, quenched FRET substrate, counter-screen for ADAM10 exosite inhibitor project, dose response (AID 743253)
[2] = viability of uninfected HEp-2 cells – cell-based, HTS, cytotoxicity control for RSV inhibitor project, dose response (AID 2410); assay type: functional; conditions: human respiratory syncytial virus
[3] = potency of ADAM10 substrate cleavage blockers – biochemical, QFRET, dose response (AID 743254);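 further: ADAM10 enzyme with the DM2 quenched FRET peptide as substrate; EDANS fluorescence gain as the protease cuts the substrate; inhibitor potency against ADAM10 proteolytic activity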
[4] = Luminescence Cell-Based Dose Retest to Confirm Inhibitors of Cancer Stem Cells. [Related pubchem assays (depositor defined):AID2717, AID2721]; assay type: functional; conditions: Homo sapiens
[5] = NIH3T3 cell viability loss – ATP luminescence, mouse fibroblasts, counter-screen, dose response (AID 2010); assay type: functional, cell-based;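 further: cells exposed to compound for about 90 hours before reading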
[6] = Trypanosoma cruzi growth suppression in host cells – NIH3T3 host cells, beta-gal luminescence, confirmation (AID 2044); assay type: functional, cell-based;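 further: intracellular parasites grown in NIH/3T3 mouse fibroblasts as host cells; luminescent beta-galactosidase reporter signal from transgenic T. cruzi replicating inside host cells; inhibitors lower the luminescence signal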
Cytochrome P450 1A2 = target: T1, Cytochrome P450 1A2 (Homo sapiens, UniProt P05177);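 further: PubChem cytochrome P450 panel assay, CYP1A2 panel member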
T1 sequence (P05177 whole entry): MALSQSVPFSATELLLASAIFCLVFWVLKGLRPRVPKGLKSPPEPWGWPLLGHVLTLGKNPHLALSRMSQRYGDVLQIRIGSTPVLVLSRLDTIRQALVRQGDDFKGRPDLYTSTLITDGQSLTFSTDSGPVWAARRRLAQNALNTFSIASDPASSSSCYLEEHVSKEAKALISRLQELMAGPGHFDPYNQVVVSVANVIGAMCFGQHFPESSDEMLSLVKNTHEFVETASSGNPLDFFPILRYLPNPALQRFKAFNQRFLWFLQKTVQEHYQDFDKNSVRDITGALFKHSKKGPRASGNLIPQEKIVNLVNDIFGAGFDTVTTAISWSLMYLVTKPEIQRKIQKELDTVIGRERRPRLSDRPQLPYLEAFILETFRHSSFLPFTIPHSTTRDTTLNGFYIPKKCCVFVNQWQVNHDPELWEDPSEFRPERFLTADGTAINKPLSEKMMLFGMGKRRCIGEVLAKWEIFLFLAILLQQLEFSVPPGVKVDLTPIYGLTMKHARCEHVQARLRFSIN

Cytochrome P450 2C9 = Cytochrome P450 2C9 (Homo sapiens, UniProt P11712)
Estrogen receptor beta = Estrogen receptor beta (Homo sapiens, UniProt Q92731); assay: blockers of SRC-3 recruitment to ERβ – biochemical, ELISA, streptavidin-HRP readout, orthogonal assay, confirmation (AID 1060)
[7] = target: E3 ubiquitin-protein ligase Mdm2 (Homo sapiens, UniProt Q00987); assay: MDM2-luc reporter signal enhancers, multi-concentration potency testing, MDM2 ubiquitin-protein ligase inhibitor program, whole-cell format, luminescence detection, 384-well microplate (AID 1394); assay type: functional;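 further: MDM2 E3 inhibitors raise luminescence so EC50 is for signal enhancement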
[8] = target: Peroxisome proliferator-activated receptor gamma/Nuclear receptor coactivator 1 (Homo sapiens, UniProt P37231); assay type: functional;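 further: agonist potency as compounds enhance coactivator SRC-1 recruitment to PPARgamma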
[9] = target: Peroxisome proliferator-activated receptor gamma/Nuclear receptor coactivator 3 (Homo sapiens, UniProt P37231); assay type: functional;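 further: agonist potency for raising coactivator recruitment to the receptor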
[10] = target: Peroxisome proliferator-activated receptor gamma/Nuclear receptor coactivator 2 (Homo sapiens, UniProt P37231); assay type: functional;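 further: agonist potency for raising coactivator recruitment to the receptor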
[11] = target: T2, Rac GTPase-activating protein 1 (Homo sapiens, UniProt Q9H0H5); assay: blockers of MgcRacGAP-driven Rac1 GTP hydrolysis – biochemical, ADP Hunter fluorescence, primary and confirmatory, confirmation (AID 624330); assay type: functional
T2 sequence (Q9H0H5 whole entry): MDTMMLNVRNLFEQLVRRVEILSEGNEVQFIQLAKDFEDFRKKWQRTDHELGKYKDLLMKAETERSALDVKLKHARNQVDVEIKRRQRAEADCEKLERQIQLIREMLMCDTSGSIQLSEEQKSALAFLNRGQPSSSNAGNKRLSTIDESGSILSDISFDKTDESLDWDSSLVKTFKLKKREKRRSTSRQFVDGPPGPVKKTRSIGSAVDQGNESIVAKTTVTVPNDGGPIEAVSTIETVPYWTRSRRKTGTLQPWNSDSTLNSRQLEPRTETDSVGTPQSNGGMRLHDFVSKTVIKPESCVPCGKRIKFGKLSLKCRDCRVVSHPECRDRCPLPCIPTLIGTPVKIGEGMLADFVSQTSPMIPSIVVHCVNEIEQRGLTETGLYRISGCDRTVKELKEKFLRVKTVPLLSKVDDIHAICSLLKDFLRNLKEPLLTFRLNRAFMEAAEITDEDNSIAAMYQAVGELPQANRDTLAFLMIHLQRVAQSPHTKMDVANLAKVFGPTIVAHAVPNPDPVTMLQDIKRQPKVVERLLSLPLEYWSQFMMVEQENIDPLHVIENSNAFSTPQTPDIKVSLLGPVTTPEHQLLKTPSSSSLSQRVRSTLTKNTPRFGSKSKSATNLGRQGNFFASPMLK

[12] = target: T3, Lytic switch protein BZLF1 (Epstein-Barr virus (strain B95-8) (HHV-4) (Human herpesvirus 4), UniProt P03206); assay: inhibition of BZLF1 ZTA DNA binding – biochemical, fluorescence polarization, Epstein-Barr virus, 1536-well, counter-screen for EBNA-1 inhibitor project, dose response (AID 2377); parameters: species or system human gammaherpesvirus 4;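 further: fluorescence polarization of Cy5-labelled ZRE DNA probe bound by purified Zta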
T3 sequence (P03206 whole entry): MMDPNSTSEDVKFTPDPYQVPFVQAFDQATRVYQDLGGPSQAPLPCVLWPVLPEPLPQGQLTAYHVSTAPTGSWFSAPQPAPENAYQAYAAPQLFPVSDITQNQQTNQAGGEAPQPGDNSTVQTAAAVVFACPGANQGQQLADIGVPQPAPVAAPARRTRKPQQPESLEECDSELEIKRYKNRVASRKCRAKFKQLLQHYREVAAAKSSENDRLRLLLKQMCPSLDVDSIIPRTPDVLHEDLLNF

[13] = target: T4, Epstein-Barr nuclear antigen 1 (Epstein-Barr virus (strain B95-8) (HHV-4) (Human herpesvirus 4), UniProt P03211); assay: inhibition of EBV nuclear antigen 1 DNA binding – biochemical, fluorescence polarization, 1536-well, dose response (AID 2381); parameters: species or system human gammaherpesvirus 4;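 further: fluorescence polarization of a Cy5 DNA probe bound by EBNA-1 protein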
T4 sequence (P03211 whole entry): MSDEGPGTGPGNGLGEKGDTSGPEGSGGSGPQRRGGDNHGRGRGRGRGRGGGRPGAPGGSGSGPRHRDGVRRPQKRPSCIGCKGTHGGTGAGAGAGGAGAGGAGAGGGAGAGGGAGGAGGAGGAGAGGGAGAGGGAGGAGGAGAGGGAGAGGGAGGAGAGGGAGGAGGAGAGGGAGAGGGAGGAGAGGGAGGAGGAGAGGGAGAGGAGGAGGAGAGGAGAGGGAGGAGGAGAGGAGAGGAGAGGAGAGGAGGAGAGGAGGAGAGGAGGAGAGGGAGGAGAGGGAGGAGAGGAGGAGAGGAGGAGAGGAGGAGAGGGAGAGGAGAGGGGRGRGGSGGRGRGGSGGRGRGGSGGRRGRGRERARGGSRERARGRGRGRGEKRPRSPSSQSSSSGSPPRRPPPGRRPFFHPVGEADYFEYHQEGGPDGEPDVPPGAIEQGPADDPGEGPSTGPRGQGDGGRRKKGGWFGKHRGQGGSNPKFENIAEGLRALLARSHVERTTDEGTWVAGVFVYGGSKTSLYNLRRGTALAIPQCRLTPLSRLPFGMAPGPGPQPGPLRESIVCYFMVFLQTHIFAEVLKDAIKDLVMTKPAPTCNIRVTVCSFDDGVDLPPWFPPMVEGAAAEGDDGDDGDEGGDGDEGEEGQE

[14] = Luminescence-based cell-based high throughput dose response assay to identify activators of the DAF-12 from the parasite S. stercoralis (ssDAF-12).; assay type: functional
[15] = target: T5, Oxysterols receptor LXR-beta (Homo sapiens, UniProt P55055); assay: LXR agonists, Gal4 luciferase reporter, dose response, counter-screen for ssDAF-12 agonist project, cell-based, luminescence, HEK293, S. stercoralis campaign (AID 720737); assay type: functional; conditions: read-out: IC50 (the source's name)
T5 sequence (P55055 whole entry): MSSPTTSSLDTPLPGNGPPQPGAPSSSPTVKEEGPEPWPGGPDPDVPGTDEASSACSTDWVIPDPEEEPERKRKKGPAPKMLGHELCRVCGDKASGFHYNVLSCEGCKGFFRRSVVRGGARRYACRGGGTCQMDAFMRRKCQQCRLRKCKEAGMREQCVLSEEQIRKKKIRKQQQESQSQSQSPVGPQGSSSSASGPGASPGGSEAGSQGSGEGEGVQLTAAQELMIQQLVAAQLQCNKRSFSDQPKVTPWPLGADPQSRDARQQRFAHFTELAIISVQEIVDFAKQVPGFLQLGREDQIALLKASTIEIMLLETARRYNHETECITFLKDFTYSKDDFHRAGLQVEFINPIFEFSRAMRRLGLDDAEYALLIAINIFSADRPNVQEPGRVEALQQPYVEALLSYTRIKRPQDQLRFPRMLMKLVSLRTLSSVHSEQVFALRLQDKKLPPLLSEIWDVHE

[16] = viability loss of HPDE-C7K cells – cell-based, fluorescence, HTS, primary screen (AID 431); assay type: functional; conditions: Homo sapiens
[17] = HPDE-C7 pancreatic duct cell viability loss – fluorescence, HTS (AID 430); assay type: functional, cell-based; conditions: Homo sapiens

Chain of E3 ubiquitin-protein ligase Mdm2 (Q00987 whole entry): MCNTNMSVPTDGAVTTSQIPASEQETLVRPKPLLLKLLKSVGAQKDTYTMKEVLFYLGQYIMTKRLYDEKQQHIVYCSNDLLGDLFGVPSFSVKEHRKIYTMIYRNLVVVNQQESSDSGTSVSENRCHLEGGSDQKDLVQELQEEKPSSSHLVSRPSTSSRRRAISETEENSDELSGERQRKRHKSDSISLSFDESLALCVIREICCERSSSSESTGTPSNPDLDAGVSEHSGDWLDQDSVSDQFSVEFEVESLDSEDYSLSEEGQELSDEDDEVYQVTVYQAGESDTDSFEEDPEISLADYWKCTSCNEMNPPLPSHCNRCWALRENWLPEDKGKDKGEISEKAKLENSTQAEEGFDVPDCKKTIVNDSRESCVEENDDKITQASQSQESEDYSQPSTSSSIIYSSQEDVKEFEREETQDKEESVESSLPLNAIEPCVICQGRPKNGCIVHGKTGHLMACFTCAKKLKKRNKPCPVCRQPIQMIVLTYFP
Chain of Disintegrin and metalloproteinase domain-containing protein 17 (P78536 whole entry, the tested form may be a part): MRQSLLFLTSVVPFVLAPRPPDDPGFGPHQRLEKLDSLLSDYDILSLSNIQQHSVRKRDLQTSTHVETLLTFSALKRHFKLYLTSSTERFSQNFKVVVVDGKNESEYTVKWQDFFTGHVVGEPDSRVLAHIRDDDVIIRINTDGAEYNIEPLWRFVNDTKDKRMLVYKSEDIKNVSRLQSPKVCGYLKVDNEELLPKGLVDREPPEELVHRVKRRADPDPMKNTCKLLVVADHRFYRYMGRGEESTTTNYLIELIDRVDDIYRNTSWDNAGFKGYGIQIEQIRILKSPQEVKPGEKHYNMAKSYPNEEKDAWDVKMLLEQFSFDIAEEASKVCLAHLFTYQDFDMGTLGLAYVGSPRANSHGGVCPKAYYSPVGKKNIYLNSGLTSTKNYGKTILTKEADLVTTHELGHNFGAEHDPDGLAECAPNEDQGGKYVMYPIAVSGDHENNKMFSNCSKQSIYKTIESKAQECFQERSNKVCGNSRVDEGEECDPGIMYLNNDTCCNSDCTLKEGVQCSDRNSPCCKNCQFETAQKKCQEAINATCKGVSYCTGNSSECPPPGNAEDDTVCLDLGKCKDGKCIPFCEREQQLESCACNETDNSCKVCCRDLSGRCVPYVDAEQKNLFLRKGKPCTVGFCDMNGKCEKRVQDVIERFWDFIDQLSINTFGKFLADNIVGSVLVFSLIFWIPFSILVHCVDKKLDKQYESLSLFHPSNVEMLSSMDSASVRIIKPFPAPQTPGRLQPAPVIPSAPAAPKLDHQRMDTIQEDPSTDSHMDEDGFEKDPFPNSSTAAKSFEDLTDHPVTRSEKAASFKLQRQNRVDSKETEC
Chain of Estrogen receptor beta (Q92731 whole entry): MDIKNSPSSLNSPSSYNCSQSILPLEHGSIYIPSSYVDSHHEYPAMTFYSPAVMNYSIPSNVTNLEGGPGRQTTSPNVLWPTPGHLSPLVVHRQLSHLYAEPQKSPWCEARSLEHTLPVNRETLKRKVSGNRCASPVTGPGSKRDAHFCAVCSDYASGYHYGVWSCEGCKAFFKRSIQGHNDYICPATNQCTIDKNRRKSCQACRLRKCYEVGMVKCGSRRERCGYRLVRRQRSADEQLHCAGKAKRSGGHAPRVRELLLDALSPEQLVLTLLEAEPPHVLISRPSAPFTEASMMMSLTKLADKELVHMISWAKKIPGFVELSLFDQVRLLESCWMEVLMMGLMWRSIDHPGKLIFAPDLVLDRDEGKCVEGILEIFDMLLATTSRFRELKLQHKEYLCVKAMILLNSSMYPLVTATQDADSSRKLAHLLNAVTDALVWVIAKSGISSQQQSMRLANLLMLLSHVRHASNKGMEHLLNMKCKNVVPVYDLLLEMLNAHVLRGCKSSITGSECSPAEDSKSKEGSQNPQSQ
Chain of Cytochrome P450 2C9 (P11712 whole entry): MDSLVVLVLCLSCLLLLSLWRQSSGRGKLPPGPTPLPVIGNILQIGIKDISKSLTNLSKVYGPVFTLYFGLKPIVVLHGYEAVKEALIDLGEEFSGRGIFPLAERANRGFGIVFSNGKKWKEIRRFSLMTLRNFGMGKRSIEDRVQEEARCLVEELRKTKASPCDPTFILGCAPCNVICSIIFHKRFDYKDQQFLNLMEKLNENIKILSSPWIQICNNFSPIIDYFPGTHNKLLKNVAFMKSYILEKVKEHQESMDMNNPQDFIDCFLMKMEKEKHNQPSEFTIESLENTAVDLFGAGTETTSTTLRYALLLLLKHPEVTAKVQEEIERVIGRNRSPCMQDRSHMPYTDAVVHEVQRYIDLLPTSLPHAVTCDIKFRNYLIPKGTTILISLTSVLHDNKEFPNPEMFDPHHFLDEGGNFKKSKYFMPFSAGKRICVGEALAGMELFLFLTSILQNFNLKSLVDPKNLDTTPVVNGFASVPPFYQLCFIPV
Chain of Peroxisome proliferator-activated receptor gamma/Nuclear receptor coactivator 2 (P37231 whole entry): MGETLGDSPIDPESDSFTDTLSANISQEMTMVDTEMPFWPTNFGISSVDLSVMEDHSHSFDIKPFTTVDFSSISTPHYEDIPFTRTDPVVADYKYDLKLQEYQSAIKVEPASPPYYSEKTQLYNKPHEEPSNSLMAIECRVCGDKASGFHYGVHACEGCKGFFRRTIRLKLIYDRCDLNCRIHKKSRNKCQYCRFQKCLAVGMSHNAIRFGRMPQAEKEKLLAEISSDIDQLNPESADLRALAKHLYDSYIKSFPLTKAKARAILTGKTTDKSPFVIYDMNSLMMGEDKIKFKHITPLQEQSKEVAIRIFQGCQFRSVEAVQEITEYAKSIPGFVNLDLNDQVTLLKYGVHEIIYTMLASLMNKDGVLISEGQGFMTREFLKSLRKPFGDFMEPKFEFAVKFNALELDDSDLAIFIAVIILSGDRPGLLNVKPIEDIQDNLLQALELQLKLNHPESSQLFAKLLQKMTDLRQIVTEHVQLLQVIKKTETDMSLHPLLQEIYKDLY
Chain of Peroxisome proliferator-activated receptor gamma/Nuclear receptor coactivator 2 (Q15596 whole entry, further chain): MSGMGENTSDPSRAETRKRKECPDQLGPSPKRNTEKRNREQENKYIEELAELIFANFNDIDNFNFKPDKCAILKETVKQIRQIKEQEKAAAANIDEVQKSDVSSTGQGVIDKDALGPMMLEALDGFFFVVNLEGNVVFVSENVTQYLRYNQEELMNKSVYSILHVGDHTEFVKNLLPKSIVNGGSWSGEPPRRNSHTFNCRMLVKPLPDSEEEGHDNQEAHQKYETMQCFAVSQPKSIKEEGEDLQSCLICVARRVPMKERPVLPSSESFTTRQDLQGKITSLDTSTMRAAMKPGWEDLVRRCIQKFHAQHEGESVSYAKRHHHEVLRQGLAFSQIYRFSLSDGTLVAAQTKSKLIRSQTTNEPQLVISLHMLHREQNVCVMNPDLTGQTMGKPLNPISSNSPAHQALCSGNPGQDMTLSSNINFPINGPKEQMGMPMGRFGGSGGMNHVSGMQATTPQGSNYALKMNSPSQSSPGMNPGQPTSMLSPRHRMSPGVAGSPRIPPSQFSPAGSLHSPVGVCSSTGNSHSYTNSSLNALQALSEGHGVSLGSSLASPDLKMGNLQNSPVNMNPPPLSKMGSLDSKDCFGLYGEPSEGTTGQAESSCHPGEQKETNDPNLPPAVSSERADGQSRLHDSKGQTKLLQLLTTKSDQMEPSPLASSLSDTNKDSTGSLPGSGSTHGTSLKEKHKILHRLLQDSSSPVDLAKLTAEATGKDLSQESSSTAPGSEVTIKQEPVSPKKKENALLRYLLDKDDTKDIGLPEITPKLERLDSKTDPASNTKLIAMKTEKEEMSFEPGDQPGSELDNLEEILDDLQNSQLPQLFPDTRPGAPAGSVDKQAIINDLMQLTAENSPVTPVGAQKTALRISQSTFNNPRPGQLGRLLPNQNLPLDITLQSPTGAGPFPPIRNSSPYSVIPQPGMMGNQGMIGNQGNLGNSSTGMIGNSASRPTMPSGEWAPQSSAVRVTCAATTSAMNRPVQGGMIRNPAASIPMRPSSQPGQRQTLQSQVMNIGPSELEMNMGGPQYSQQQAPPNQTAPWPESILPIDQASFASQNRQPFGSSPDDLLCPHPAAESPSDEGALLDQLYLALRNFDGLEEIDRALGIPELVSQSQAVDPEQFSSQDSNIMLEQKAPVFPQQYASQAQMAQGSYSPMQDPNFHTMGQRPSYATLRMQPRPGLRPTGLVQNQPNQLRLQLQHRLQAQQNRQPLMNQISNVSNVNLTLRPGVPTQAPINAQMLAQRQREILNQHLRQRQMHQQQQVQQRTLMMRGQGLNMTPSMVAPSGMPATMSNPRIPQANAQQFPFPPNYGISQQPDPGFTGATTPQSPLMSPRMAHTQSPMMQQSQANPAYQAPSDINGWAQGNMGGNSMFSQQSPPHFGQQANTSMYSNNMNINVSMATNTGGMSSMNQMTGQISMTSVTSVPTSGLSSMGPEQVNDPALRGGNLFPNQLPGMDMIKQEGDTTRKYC

With `CC(/C=C1\SC(=O)N(CC(=O)Nc2cccc(O)c2)C1=O)=C\c1ccccc1` the IC50 [1] was > 69.5 µM (inactive), the CC50 [2] was 13.9 µM (active) and the IC50 [3] was 10.2 µM (inactive). The AC50 [4] was 4.04 µM (active).

In the case of `O=C(CN(Cc1cccs1)S(=O)(=O)c1ccc(S(=O)(=O)NC2CCCCC2)cc1)Nc1ccccc1`, the EC50 [5] is reported as > 60 µM (not active), the EC50 [6] is reported as 2.08 µM (active) and the IC50 [1] is reported as > 69.5 µM (inactive). For the same compound, the IC50 [3] was 7.69 µM (active).

For `CCN1CCN(Cc2ccc(NC(=O)Nc3cccs3)cc2)CC1`, the AC50 (Cytochrome P450 1A2) was 12.6 µM (inconclusive), the AC50 (Cytochrome P450 2C9) was 7.94 µM (inconclusive) and the IC50 (Estrogen receptor beta) was 0.41 µM (not active).

In the case of `COc1ccc(C2C(C(=O)N3CCN(C)CC3)c3cc(OC)c(OC)cc3C(=O)N2C)cc1` (stereo not given), the EC50 [7] is reported as 2.94 µM (not active).

For `COC(=O)c1[nH]c2cc(OC)c(OC)cc2c1NC(=O)Oc1ccccc1`, the EC50 [8] was 97.7 µM (not active), the EC50 [9] was > 79.4 µM (not active) and the EC50 [10] was 90.7 µM (not active). The IC50 [11] was 28.8 µM (active).

With `CCOC(=O)c1sc(NC(=O)COc2ccc3c(c2)OCO3)nc1C` the IC50 [12] was > 111 µM (not active) and the IC50 [13] was 7.18 µM (active).

For `CN(C)c1cc(C(F)(F)F)nc(-c2ccccn2)n1`, the EC50 [7] was 4.16 µM (not active).

With `CCOc1ccc(OCC)c(NC(=O)C(NS(=O)(=O)c2ccc3c(c2)oc(=O)n3C)C(C)C)c1` (stereo not given) the IC50 [12] was > 111 µM (not active) and the IC50 [13] was > 5.47 µM (active).

In the case of `Oc1ccccc1-c1cc(-c2ccccc2Cl)[nH]n1`, the IC50 [14] is reported as > 67.5 µM (inactive) and the EC50 [15] is reported as > 67.5 µM (inactive).

In the case of `O=C(c1ccc(F)cc1)N1CCC(N2CCCCCC2)CC1`, the EC50 [16] is reported as > 20 µM (not active) and the EC50 [17] is reported as > 20 µM (not active).
